Patent US9006226B2, “Dihydropteridinones I” (Boehringer Ingelheim International GmbH, priority 2012, dated 2015)

System: Aβ42
Assay: Aβ42 vs. Aβ total production in H4 neuroglioma cells stably expressing human APP695 (Meso Scale Discovery electrochemiluminescence assay)
Assay type: cell-based
Conditions: the higher the ratio, the more specific the inhibition of Aβ42
Protocol: Cells were plated out to near confluency. The compounds to be tested were received as 10 mM stocks in 100% DMSO. A dilution series was initially generated in 100% DMSO and then diluted 200-fold in cell culture media such that the tested concentration range was 30 μM to 0.1 nM and the final DMSO concentration was 0.5%. The diluted compounds were incubated with the cells for 22 hours in an incubator at 37° C. and 5% CO2. Aβ42 as well as Aβ total levels were then measured post-incubation from the supernatant of the cells. Aβ42 levels were determined using a specific electrochemiluminescence assay provided by Meso Scale Discovery (Catalog #L21CA-1) according to the manufacturer's protocol. Aβ total levels were likewise determined using a specific electrochemiluminescence assay provided by Meso Scale Discovery (Catalog #L21ZA-1) according to the manufacturer's protocol.
In order to absolutely define the described compounds as modulators of γ-Secretase as opposed to simply inhibitors of γ-Secretase, measurements of not only Aβ42 but also Aβ total are performed.

| Ratio Aβ(total)/Aβ42 (Aβ total IC50/Aβ42 IC50) | SMILES |
| --- | --- |
| 59 | COc1cc(Nc2ncc3c(n2)N2CCCCCC2C(=O)N3C)ccc1-n1cnc(C)c1 (stereo not shown) [Example 2] |
| 44 | CCCN1C(=O)C2CCCCCN2c2nc(Nc3ccc(-n4cnc(C)c4)c(OC)c3)ncc21 (stereo not shown) [Example 4] |
| 64 | CCN1C(=O)C2CCCCCN2c2nc(Nc3ccc(-n4ccnc4)c(OC)c3)ncc21 (stereo not shown) [Example 5-2] |
| >175 | CCN1C(=O)C2CCCCCN2c2nc(Nc3cnc(-n4cnc(C)c4)c(OC)c3)ncc21 (stereo not shown) [Example 5-4] |
| 3 | CCN1C(=O)C2CCCCCN2c2nc(Nc3ccc(-n4cnc(C)c4)cc3OC)ncc21 (stereo not shown) [Example 5-7] |
| 96 | CCc1nc(Nc2ccc(-n3cnc(C)c3)c(OC)c2)nc2c1N(C)C(=O)C1CCCN21 (stereo not shown) [Example 6] |
| >310 | COc1cc(Nc2ncc3c(n2)N2CCCC2C(=O)N3C)ccc1-n1cnc(C)c1 (stereo not shown) [Example 11] |
| >10 | COc1cc(Nc2ncc3c(n2)N2CCCC2C(=O)N3C)ccc1-n1cnc(C)n1 (stereo not shown) [Example 12-1] |
| >27 | Cc1cn(-c2ccc(Nc3ncc4c(n3)N3CCCC3C(=O)N4C)cc2F)cn1 (stereo not shown) [Example 12-3] |
| >39 | COc1cc(Nc2ncc3c(n2)N2CCCC2C(=O)N3C)ccc1-n1ncnc1C (stereo not shown) [Example 12-4] |
| 14 | COc1cc(Nc2nc(SC)c3c(n2)N2CCCCC2C(=O)N3C)ccc1-n1cnc(C)c1 (stereo not shown) [Example 13] |
| 55 | COc1cc(Nc2ncc3c(n2)N2CCCOC2(C)C(=O)N3C)ccc1-n1cnc(C)c1 (stereo not shown) [Example 31] |
| 66 | COc1cc(Nc2nc(C(C)C)c3c(n2)N2CCCC2C(=O)N3C)ccc1-n1cnc(C)c1 (stereo not shown) [Example 32] |
| 86 | CCc1nc(Nc2ccc(-n3cnc(C)c3)c(OC)c2)nc2c1N(C)C(=O)C1CCCCN21 (stereo not shown) [Example 36] |

The next lines start with the compound.

| SMILES | Ratio Aβ(total)/Aβ42 (Aβ total IC50/Aβ42 IC50) |
| --- | --- |
| CCc1nc(Nc2ccc(-n3cnc(C)c3)c(OC)c2)nc2c1NC(=O)[C@H]1[C@@H](c3ccc(F)cc3)CCN21 (racemic) [Example 22] | 71 |
| CCc1nc(Nc2ccc(-n3cnc(C)c3)c(OC)c2)nc2c1N(C)C(=O)[C@H]1[C@H](c3ccc(F)cc3)CCN21 (racemic) [Example 23] | 90 |
| CCc1nc(Nc2ccc(-n3cnc(C)c3)c(OC)c2)nc2c1NC(=O)[C@@]1(C)[C@@H](OC)CN21 (racemic) [Example 27] | 70 |
| CCN1C(=O)C2CCCCCN2c2nc(Nc3ccc(-c4ccnc(C)c4)cc3)ncc21 (stereo not shown) [Example 3] | 17 |
| CCN1C(=O)C2CCCCCN2c2nc(Nc3ccc(-c4cnc(C)s4)c(OC)c3)ncc21 (stereo not shown) [Example 5-5] | 13 |
| CCN1C(=O)C2CCCCCN2c2nc(Nc3ccc(-n4cnc(C)c4)cc3)ncc21 (stereo not shown) [Example 5-6] | 43 |
| CCCN1C(=O)C2CCCCCN2c2nc(Nc3ccc(-c4ccnc(C)c4)cc3)ncc21 (stereo not shown) [Example 5] | 14 |
| CCc1nc(Nc2ccc(-n3cnc(C)c3)c(OC)c2)nc2c1NC(=O)C1CCCN21 (stereo not shown) [Example 7] | 98 |
| CCc1nc(Nc2ccc(-c3ccnc(C)c3)cc2)nc2c1N(C)C(=O)C1CCCN21 (stereo not shown) [Example 8] | 62 |
| CCc1nc(Nc2ccc(-c3cnc(C)o3)nc2)nc2c1N(C)C(=O)C1CCCN21 (stereo not shown) [Example 9] | >24 |
| CN1C(=O)C2CCCN2c2nc(Nc3ccc(-c4cnn(C)c4)nc3)ncc21 (stereo not shown) [Example 12-2] | >5 |
| CCc1nc(Nc2ccc(-n3cnc(C)c3)c(OC)c2)nc2c1N(C)C(=O)[C@@H]1C[C@@H](OC)CN21 [Example 14] | 67 |
| CCc1nc(Nc2ccc(-n3cnc(C)c3)c(C#N)c2)nc2c1N(C)C(=O)[C@@H]1C[C@@H](OC)CN21 [Example 15] | 36 |
| CCc1nc(Nc2ccc(-n3cnc(C)c3)c(C#N)c2)nc2c1NC(=O)[C@@H]1C[C@@H](OC)CN21 [Example 16] | 33 |
| CCc1nc(Nc2ccc(-n3cnc(C)c3)c(OC)c2)nc2c1NC(=O)[C@@H]1C[C@@H](OC)CN21 [Example 17] | 68 |
| CCc1nc(Nc2ccc(-c3cnc(C)o3)c(OC)c2)nc2c1NC(=O)[C@@H]1C[C@@H](OC)CN21 [Example 19] | 82 |
| CCc1nc(Nc2ccc(-n3cnc(C)c3)c(OC)c2)nc2c1N(C)C(=O)[C@]1(C)C[C@@H](OC)CN21 [Example 25] | 73 |
| CCc1nc(Nc2ccc(-n3cnc(C)c3)c(OC)c2)nc2c1NC(=O)C1COCCN21 (stereo not shown) [Example 28] | 29 |
| CCc1nc(Nc2ccc(-n3cnc(C)c3)c(OC)c2)nc2c1N(C)C(=O)C1COCCN21 (stereo not shown) [Example 29] | 76 |
| COc1cc(Nc2ncc3c(n2)N2CCCOCC2C(=O)N3)ccc1-n1cnc(C)c1 (stereo not shown) [Example 30] | 96 |
| CC(C)Cc1nc(Nc2ccc(-c3cnn(C)c3)cc2)nc2c1N(C)C(=O)C1CCCN21 (stereo not shown) [Example 34] | 30 |
| Cc1cn(-c2ccc(Nc3nc(CC(C)C)c4c(n3)N3CCCC3C(=O)N4C)cc2C#N)cn1 (stereo not shown) [Example 35] | 71 |
| COc1cc(Nc2nc(C(C)C)c3c(n2)N2CCN(C(=O)OC(C)(C)C)CC2C(=O)N3C)ccc1-n1cnc(C)c1 (stereo not shown) [Example 37] | 12 |
